In general, Papp refers to the rate of passage across a membrane or cell layer, normalised by area and donor concentration. A low value points to poor permeation.

We go through four compounds from patent US9403806B1, “Cognition enhancing compounds and compositions, methods of making, and methods of treating” (NeuroSolis, Inc., priority 2010, dated 2016).

The structures appear in SMILES notation. Counter-ions that a name gives are not always drawn.

In one data set the target is T1, human FMO1 Supersomes (Homo sapiens, UniProt Q01740).
T1 construct: purchased BD Biosciences 456241
T1 sequence (Q01740 1-532): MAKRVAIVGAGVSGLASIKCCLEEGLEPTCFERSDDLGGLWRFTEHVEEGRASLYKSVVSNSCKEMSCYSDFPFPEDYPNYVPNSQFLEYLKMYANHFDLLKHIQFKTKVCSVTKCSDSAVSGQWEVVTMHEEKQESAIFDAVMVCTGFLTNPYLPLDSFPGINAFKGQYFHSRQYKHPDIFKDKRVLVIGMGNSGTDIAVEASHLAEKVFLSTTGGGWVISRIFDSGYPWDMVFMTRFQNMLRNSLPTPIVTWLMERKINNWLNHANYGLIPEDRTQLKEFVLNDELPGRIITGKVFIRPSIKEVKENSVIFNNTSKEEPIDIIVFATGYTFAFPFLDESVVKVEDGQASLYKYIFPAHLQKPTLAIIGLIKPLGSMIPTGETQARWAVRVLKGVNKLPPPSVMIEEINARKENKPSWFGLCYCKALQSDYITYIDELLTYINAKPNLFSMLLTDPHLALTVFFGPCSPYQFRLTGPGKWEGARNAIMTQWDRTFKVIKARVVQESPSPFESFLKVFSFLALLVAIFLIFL
Put plainly: Metabolism by flavin monoxygenase 1 (FMO1) Supersomes. The data set is classed as in vitro ADME. As to conditions: after 6 hours (FIG. 2). Here is the method:
[…] Aliquots were removed every 10 minutes, and 1% formic acid was added to halt the reaction. Samples were centrifuged, filtered through 0.2 micron spinfilter and the amount of each compound in the supernatants was quantitated using LC/MS/MS.

Data set [1] deals with hippocampal inositol phosphate. Nature of the data set: In vivo tissue inositol phosphate signaling pathway activation, hippocampus. The arrangement: species or system Long Evans Hooded rats. As to conditions: normal rats, dose-dependent 0.03 mg/kg to at least 3 mg/kg (FIG. 10A). Here is the method:
Experimental compounds or drug substances were administered using standard techniques to Long Evans Hooded rats weighing 225 to 350 grams, and which had been pretreated with a subcutaneous injection of lithium chloride at a suitable dose between 3 and 10 mmoles per kg. At suitable times the animals were briefly anesthetized using 5% isoflurane and euthanized by decapitation. The brains and submaxillary salivary glands were rapidly dissected out, and the hippocampuses were dissected from the brains. The dissected tissues were homogenized in a suitable volume of ice-cold phosphate-buffered saline containing 10 mM lithium chloride, pH7.4, using a tissue homogenizer, and used immediately or frozen in aliquots at −80 deg C. for future use. The concentration of inositol-1-phosphate was determined in the homogenates using the IPOne TR-FRET assay (CisBio cat no 621PAPEB), following the manufacturer's instruction

For data set [2], the target named is T2, human muscarinic M1 receptors (Homo sapiens, UniProt P11229).
T2 construct: host or cells: A9L cells
T2 sequence (P11229 1-460): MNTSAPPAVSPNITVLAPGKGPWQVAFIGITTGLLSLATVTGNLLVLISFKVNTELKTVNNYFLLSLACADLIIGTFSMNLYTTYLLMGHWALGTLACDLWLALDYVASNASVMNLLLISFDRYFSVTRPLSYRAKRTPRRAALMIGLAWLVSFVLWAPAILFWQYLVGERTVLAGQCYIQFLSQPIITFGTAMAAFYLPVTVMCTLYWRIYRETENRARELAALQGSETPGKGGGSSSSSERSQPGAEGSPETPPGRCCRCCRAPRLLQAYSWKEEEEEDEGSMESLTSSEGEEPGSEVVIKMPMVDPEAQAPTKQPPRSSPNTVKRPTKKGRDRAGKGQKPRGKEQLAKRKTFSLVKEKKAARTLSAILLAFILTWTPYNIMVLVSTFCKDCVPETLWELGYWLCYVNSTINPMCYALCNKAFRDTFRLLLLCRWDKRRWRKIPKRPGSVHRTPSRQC
Put plainly: IP production in A9L cells with human M1 receptors (IPOne TR-FRET), Example 28. It is filed as cell-based. The method in brief:
(§1)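 A9L cells transfected with human M1 or M3 receptors, exposed to compound in medium with 10 mM LiCl and 10 mM HEPES (pH 7.4) for 60 min at 37 °C. IP in lysates measured by IPOne TR-FRET; efficacy expressed relative to full agonist (100%).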

Another data set relates to CD-I mice. Put plainly: Apomorphine induced climbing model of psychosis. The data set is classed as in vivo. Here is the method: As described in Costall et. al. European Journal of Pharmacology 1978, 50, 39. individual CD-I mice, 1-2 months old, were placed in a cylindrical wire mesh cage (13.2 cm high×13.2 cm diameter) constructed of steel wire 1 mm thick spaced at 1.2 cm^2. Cylinders were placed in a standard OptiMICE mouse cage (29×32×9×29 cm and 14 cm high) with adequate wood chip bedding provided. Observations of climbing (defined as 3 or more paws of the ground) were carried out every 5 minutes at a duration of 1 minute for […]. Animals were injected subcutaneously under isoflurane anesthesia with test compounds, reference compounds, which included clozapine, haloperidol, olanzapine and xanomeline, or PBS as a control. This was followed 5 minutes later by 2 mg/kg apomorphine hydrochloride. All drugs were dissolved in PBS or a mixture of (by volume) 96% PBS and 4% hydroxypropyl-beta-cyclodextrin, and dosed at a rate of 5 ml per kilogram of body weight. Following injections, animals were replaced in the mesh cages and observed for climbing (defined as 3 or more paws off the ground) every 5 minutes for 1 minute for 60 minutes after dosing.

In data set [3] the test system is pooled male human liver microsomes. Nature of the data set: Metabolism by human liver microsomes, Example 33. The note with it: 6 hours incubation (FIGS. 4A, 4B). It is filed as in vitro ADME. How it is done: Compounds were incubated with pooled male human liver microsomes (BD Biosciences, #452172) and an NADP-regenerating system in a phosphate buffer (pH 7.4) for a total of 6 hours. Aliquots were removed every 2 hours, and 1% formic acid was added to halt the reaction. Samples were centrifuged, filtered through 0.2 micron spinfilter and the amount of each compound in the supernatants was quantitated using LC/MS/MS.
Background: Liver microsomes are a subcellular fraction often used to study metabolism.

A further data set can be described thus: in vitro. The note with it: PAMPA.
Another data set relates to anesthetized normal rats. Nature of the data set: In vivo measurement of salivation. Also on record: species or system Long Evans Hooded rats. As to conditions: anesthetized normal rats, dose-dependent between about 0.1 mg/kg and 1 mg/kg (FIG. 11). Here is the method: Suitable doses of test compounds or drug substances were administered using standard techniques to Long Evans Hooded rats weighing 225 to 350 grams, or CD-1 mice weighing 30 to 50 grams, which had been anesthetized using 2-3.5%% of isoflurane in oxygen. The animals were placed slightly head-down on an inclined, heated ramp. Rectal temperature was monitored using a thermocouple and the temperature of the heating pad was adjusted manually to maintain normal body temperature. Saliva was collected from the mouth by absorption onto pre-weighed slips of filter paper. The filter paper was changed periodically and the amount of saliva was measured by weighing the filter paper slips

In data set [4] the test system is A-beta 1-40 and A-beta 1-42. Nature of the data set: A-beta in hippocampal microdialysate of transgenic mice. The data set is classed as in vivo, Tg-2576 transgenic mice. As to conditions: Tg-2576 mice, single dose (FIG. 14). The text has this:
These mice have high concentrations of A-beta in their brain tissue, thought to be the cause of neuron death in Alzheimer's disease, and accumulate amyloid plaques, recapitulating one of the hallmark pathological features of Alzheimer's disease.

The target of data set [5] is T3, human muscarinic M3 receptors (Homo sapiens, UniProt P20309).
T3 construct: host or cells: A9L cells
T3 sequence (P20309 whole entry): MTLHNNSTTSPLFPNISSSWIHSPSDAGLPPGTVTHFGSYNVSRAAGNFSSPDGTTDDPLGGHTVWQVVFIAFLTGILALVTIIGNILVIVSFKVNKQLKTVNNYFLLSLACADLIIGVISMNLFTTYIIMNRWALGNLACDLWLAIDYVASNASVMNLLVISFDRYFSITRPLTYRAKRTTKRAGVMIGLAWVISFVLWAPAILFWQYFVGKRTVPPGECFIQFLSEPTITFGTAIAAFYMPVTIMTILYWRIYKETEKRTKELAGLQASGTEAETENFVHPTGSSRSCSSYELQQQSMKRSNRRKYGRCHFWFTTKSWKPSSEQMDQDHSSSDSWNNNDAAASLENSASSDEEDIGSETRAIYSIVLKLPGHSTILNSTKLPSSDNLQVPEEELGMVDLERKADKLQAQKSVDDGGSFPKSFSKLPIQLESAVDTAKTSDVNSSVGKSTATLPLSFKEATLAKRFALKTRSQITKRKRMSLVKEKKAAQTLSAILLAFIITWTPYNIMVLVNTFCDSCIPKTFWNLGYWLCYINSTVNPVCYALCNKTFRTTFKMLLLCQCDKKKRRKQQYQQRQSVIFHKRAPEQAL
Put plainly: IP production in A9L cells with human M3 receptors (IPOne TR-FRET), Example 28. The data set is classed as cell-based. In a few lines:
as §1
(Time-resolved FRET reads energy transfer from a long-lived donor to a nearby acceptor.)

The next data set concerns CD-1 Mice. Put plainly: Novel object recognition assay. The note with it: oral dose 3.0 mg/kg, 1 hr inter-trial interval. It is filed as in vivo. The text has this:
Object recognition memory—judgment of the prior occurrence of objects—is a key part of human memory, and is commonly impaired in neurodegenerative diseases, such as Alzheimer's disease (Winters B D et al Neurosci Behav Rev 32 (2008) 1055-70). This may be modeled in laboratory rodents using delayed spontaneous novel object recognition, which tests the ability of an animal to recognize an object it has previously been exposed to, after a delay. Drugs may be evaluated for their ability to improve the animal's ability to remember, recall or recognize objects in this model.
CD-1 Mice (males, 7-8 weeks old) were fasted for 16 hrs and orally dosed with compounds of interest 30 min before experiments began. Throughout those 30 min, animals were left in their home cages except during a 1 min handling habituation session at 10 min post-dosing. All handling and experiments were carried out under low, indirect light during the hours between 8 am and 3 pm. Compound 122a and donepezil were dissolved in PBS. […] Mouse activity was recorded using a digital video camera and evaluated after the trial. The time each mouse spent with its nose in contact with either object (investigation) was recorded for each minute of T2, and a Discrimination Score (D Score) was calculated using the following formula once the animal completed a total of 1 min of investigation. […]

Data set [6] deals with pooled male human liver microsomes. Nature of the data set: Metabolism in human liver microsomes, Example 45. The data set is classed as in vitro ADME. The method in brief: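 Pooled male human liver microsomes sampled every 2 hours, reactions stopped with 1% formic acid. After centrifugation and ultrafiltration, remaining parent compound quantified by reverse-phase C8 LC/MS/MS with electrospray and MRM transitions against a standard calibration curve.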

The target of a further data set is T4, rat M3 receptors (Rattus norvegicus, UniProt P08483).
T4 construct: host or cells: CHO (M3-CHO)
T4 sequence (P08483 whole entry): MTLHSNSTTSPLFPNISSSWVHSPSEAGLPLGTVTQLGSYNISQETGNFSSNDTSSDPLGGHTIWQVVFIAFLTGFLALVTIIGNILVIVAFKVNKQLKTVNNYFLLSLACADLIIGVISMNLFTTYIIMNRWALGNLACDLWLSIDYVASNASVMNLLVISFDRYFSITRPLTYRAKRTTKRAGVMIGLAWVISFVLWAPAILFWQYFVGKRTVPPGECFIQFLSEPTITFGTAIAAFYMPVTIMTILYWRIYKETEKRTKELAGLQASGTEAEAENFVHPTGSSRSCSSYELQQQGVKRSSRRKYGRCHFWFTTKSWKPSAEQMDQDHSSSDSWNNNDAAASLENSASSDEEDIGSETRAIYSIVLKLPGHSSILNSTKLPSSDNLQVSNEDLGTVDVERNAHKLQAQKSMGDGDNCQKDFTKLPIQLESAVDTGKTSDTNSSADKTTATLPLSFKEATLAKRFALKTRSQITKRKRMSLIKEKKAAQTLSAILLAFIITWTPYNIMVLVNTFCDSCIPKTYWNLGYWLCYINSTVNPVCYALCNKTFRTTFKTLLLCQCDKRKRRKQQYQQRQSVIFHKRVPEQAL
Nature of the data set: PI turnover (inositol phosphate production) in M3-CHO cells. As to conditions: mean Smax relative to carbachol (100.0); CHO cells expressing rat M3. The data set is classed as cell-based. How it is done: The medium was changed to 70 μL/well of inositol-free DMEM containing 2 mM glutamine, 10% FBS and 10 μCi/ml of [3H]-inositol (PE:cat # NET114A250UC), incubated overnight as above, then 100 μL of a solution of the test compound in HBSS containing 10 mM LiCl and 20 mM HEPES, pH 7.4 was added, incubation was continued for 60 min under the above conditions, and the test was stopped by removing the test compound and replacing with 100 μL of 50 mM formic acid in water at 4° C. […] The compounds in Table 1 are all dihydropyrimidine-oxadiazoles which vary only at the oxadiazole side chain.

Where [7] appears, read: percentage of maximal stimulation by carbachol.
[8] abbreviates: potency relative to carbachol at its EC50, semi-quantitative.
The mark [9] stands for this setting: mice, sc, apomorphine 2 mg/kg (FIG. 1).

On to `Cc1noc(C2CCCNC2)n1` (racemic) [Compound 3, 3-Methyl-5-(piperidin-3-yl)-1,2,4-oxadiazole], for which, at human FMO1 Supersomes, the “extent of metabolism in FMO Supersomes (in words)” value was “less than half metabolized”. The “hippocampal IP response” value in data set [1] is “causes an increase in the hippocampal IP response”. Also, the “huM1/A9L Smax” value in data set [2] (setting [7]) is 108%. Also, the “huM1/A9L ED50 relative to CCh*” value in [2] (setting [8]) was “+ (+ potency 2-10x CCh)”. In the data set with CD-I mice (Cmpd 3 0.1 mg/kg + APO 2 mg/kg), the “Climbing Mean” value was 8.9 s. In addition, the “Climbing Mean” value in the data set with CD-I mice (Cmpd 3 0.1 mg/kg + APO + N-Methyl Scopolamine 0.3 mg/kg) is 12.3 s. Moreover, the “Climbing Mean” value in the data set with CD-I mice (Cmpd 3 0.1 mg/kg + APO + scopolamine 0.3 mg/kg) is 47.0 s. For the same compound, in the data set on CD-I mice (setting [9]), the “activity in the apomorphine induced climbing model” value was “highly active and highly potent”; the “potency in inhibiting climbing compared with haloperidol” value is recorded as “equipotent to haloperidol”. The “metabolism in human liver microsomes (in words)” value in data set [3] is given as “metabolized significantly less in human liver microsomes than in rat liver microsomes”. In “in vitro”, this compound returned a Papp of 2.56 ×10⁻⁶ cm/s. Also, the salivation entry in the data set with anesthetized normal rats is listed as “causes salivation”. Also, in data set [4], the “reduction of the concentration of A-beta 1-40 in hippocampal microdialysate” value is reported as “approximately 40%” and the “reduction of the concentration of A-beta 1-42 in hippocampal microdialysate” value is given as “approximately 40%”. In addition, the “huM3/A9L Smax” value in [5] (setting [7]) was 54%. Further, in [5] (setting [8]), the “huM3/A9L ED50 relative to CCh*” value is given as “+/− (+/− potency 0.5-2x CCh)”.

On to `CCCCCCOc1nsnc1C1=CCCN(C)C1` [Xanomeline, reference compound], for which the “Mean D Score” value in the data set on CD-1 Mice came to 72.05%. Besides, the “Loss at 6 hrs (%)” value in data set [6] is 100%.

In the case of `COc1cc2c(cc1OC)C(=O)C(CC1CCN(Cc3ccccc3)CC1)C2` (centres unmarked) [Donepezil], in the data set with CD-1 Mice, the “Mean D Score” value came to 70.35%.

`[2H]C([2H])([2H])c1noc(C2CN=CNC2)n1` (centres unmarked) [Compound 4c, 3-(d3-methyl)-5-(1,4,5,6-tetrahydropyrimidin-5-yl)-1,2,4-oxadiazole hydrochloride]: the “M3/CHO PI turnover Relative Mean Smax” value at rat M3 receptors is 92.6.
